Source: patent US5912258A, “Thiadiazoleamide derivative and anti-ulcer drug” (Shiseido Co., Ltd., priority 1998, dated 1999)

How the values were obtained:
[1] = system: stress ulcer formation; assay: WIS: Restraint and Water Immersion Stress-Induced Ulcer Inhibition Test; type: in vivo, Male Crj:SD or Slc:SD rats; conditions: rat, 100 mg/kg orally, 7 hours water immersion stress
Procedure: WIS: Restraint and Water Immersion Stress-Induced Ulcer Inhibition Test (i) Meaning The degree of inhibition of the stress ulcer formation is tested. (ii) Method Male Crj:SD or Slc:SD rats (6 to 7-weeek-old) were fasted overnight, but allowed free access to water. Each group has 5 to 8 of these rats. The sample compound was dissolved or suspended in an aqueous solution of 0.3% sodium carboxymethylcellulose or 0.05% Tween 80 and then was orally administered (100 mg/10 ml/kg). To a control group, the vehicle was administered. 10 minutes later, the rats were placed in a stress cage and immersed to the level of xiphoid process in a water bath (21° C.) for 7 hours. At the end of the stress, the rats were sacrificed by inhalation of ether or carbon dioxide. Then, the stomach of each was removed, inflated by injecting 10 ml of 5% formalin neutral buffer solution, and immersed in 1% formalin neutral buffer solution for 30 minutes or more to be fixed. The stomach was incised along the greater curvature and then the length of each erosion in the glandular portion was determined under dissecting microscope. The sum of the length of erosions per stomach was defined as ulcer index (UI). (iii) Judgment Standard […]

[2] = system: gastric mucosa; assay: PD: Gastric Mucosal Integrity Test (gastric mucosal potential difference); type: in vivo, Male Crj:SD rats; set-up: key: 5: Same as the control with no recognizable damage at all.; 4: Though a slight PD-decreasing tendency suggesting a slight possibility of mucosal damage is found, there is no problem.; 3: Though a weak decrease in PD and a possibility of a weak mucosal damage is recognized, there is no substantial problem.; 2: Medium degree of decrease in PD is found and a mucosal damage is recognized.; 1: Heavy degree of decrease in PD is found and a remarkable mucosal damage is recognized; conditions: rat, 100 mg/kg into the chamber, 60 minutes
Procedure: PD: Gastric Mucosal Integrity Test
In this case, since the sample compound has a necrotizing effect, it is inappropriate as an anti-ulcer medicament.
Therefore, the gastric mucosal potential difference (PD), which reflects the integrity of the gastric mucosa, is measured so as to confirm that the sample compound has no damaging effect on gastric mucosa, which is toxicity at gastric mucosal level.
Male Crj:SD rats (7 to 8-week-old) were fasted overnight, but allowed free access to water, and then, under urethane anesthesia (1.25 g/kg, i.p.), fixed to a cork board on its back. The abdomen of each rat was incised, and a small incision was made in the forestomach. Then, the inside of the stomach was washed with physiological saline heated at 37° C. From the forestomach, along the greater curvature thereof, the stomach was incised without damaging blood vessels. After the height of the cork board was adjusted on a jack, the stomach was mounted on ex vivo chamber. The area of the gastric mucosa exposed to the inside of this chamber was 2.5 cm^2. The inside of the chamber was perfused with physiological saline warmed at 37° C. by micro tube pump. By using an agar bridge containing 3M KCl, the potential difference between the chamber and the abdominal cavity was measured by a PD meter. Here, the rectal temperature was measured to control the body temperature during the experiment. After the PD was sufficiently stabilized, the perfusate was stopped and then 100 mg/10 ml/kg of the sample compound dissolved or suspended in an aqueous solution of 0.5% sodium carboxymethylcellulose or 0.05% Tween 80 was administered into the chamber, while PD was recorded for 60 minutes. To a control, the vehicle was administered.
The change in PD during 60 minutes after the administration of 100 mg/kg of the sample compound was collectively studied and, with reference to the positive control, classified into 5 levels as follows:
5: Same as the control with no recognizable damage at all.
3: Though a weak decrease in PD and a possibility of a weak mucosal damage is recognized, there is no substantial problem.
2: Medium degree of decrease in PD is found and a mucosal damage is recognized.
1: Heavy degree of decrease in PD is found and a remarkable mucosal damage is recognized.

CCN(CC)CCSc1nnc(NC(=O)c2ccc(C(C)C)cc2)s1 [Example 1, 2-(4-isopropylbenzoyl)amino-5-diethylaminoethylthio-1,3,4-thiadiazole]
WIS: ulcer formation inhibitory rate [1]: 83%
PD: change in gastric mucosal potential difference (5 levels) [2]: 3

CC(C)c1ccc(C(=O)Nc2nnc(SCCN(C(C)C)C(C)C)s2)cc1 [Example 2, 2-(4-isopropylbenzoyl)amino-5-diisopropylaminoethylthio-1,3,4-thiadiazole]
WIS: ulcer formation inhibitory rate [1]: 80%
PD: change in gastric mucosal potential difference (5 levels) [2]: 5

CCN(CC)CCSc1nnc(NC(=O)c2ccc(C(C)(C)C)cc2)s1 [Example 4, 2-(4-tert-butylbenzoyl)amino-5-diethylaminoethylthio-1,3,4-thiadiazole]
WIS: ulcer formation inhibitory rate [1]: 79%
PD: change in gastric mucosal potential difference (5 levels) [2]: 3

CCN(CC)CCSc1nnc(NC(=O)c2ccc(OC/C=C(\C)CCC=C(C)C)cc2)s1 [Example 10, 2-(4-geranyloxybenzoyl)amino-5-diethylaminoethylthio-1,3,4-thiadiazole]
WIS: ulcer formation inhibitory rate [1]: 48%
PD: change in gastric mucosal potential difference (5 levels) [2]: 5

CC(C)=CCC/C(C)=C/COc1ccc(C(=O)Nc2nnc(SCCN3CCCCC3)s2)cc1 [Example 12, 2-(4-geranyloxybenzoyl)amino-5-piperidinoethylthio-1,3,4-thiadiazole]
WIS: ulcer formation inhibitory rate [1]: 44%
PD: change in gastric mucosal potential difference (5 levels) [2]: 5

CC(C)=CCC/C(C)=C/COc1ccc(C(=O)Nc2nnc(SCc3ccccn3)s2)cc1 [Example 14, 2-(4-geranyloxybenzoyl)amino-5-(2-pyridylmethyl)thio-1,3,4-thiadiazole]
WIS: ulcer formation inhibitory rate [1]: 30%
PD: change in gastric mucosal potential difference (5 levels) [2]: 5

CCSc1nnc(NC(=O)c2ccc(OC/C=C(\C)CCC=C(C)C)cc2)s1 [Example 15, 2-(4-geranyloxybenzoyl)amino-5-ethylthio-1,3,4-thiadiazole]
WIS: ulcer formation inhibitory rate [1]: 43%
PD: change in gastric mucosal potential difference (5 levels) [2]: 5
